Assay results: patent publication US8507509B2, “Saturated and insaturated bi- or tricyclic aryloxyacetamine derivatives and their use as fungicides” (Syngenta Crop Protection LLC, priority 2007, dated 2013)

Experiments:
Plasmopara viticola = Plasmopara viticola (downy mildew of grapevine), grapevine leaf disk assay, preventive; type: in vivo; conditions: foliar, 168 h, 200 ppm, grapevine leaf disks, assessed seven days after inoculation, read-out: control of fungal infection, Plasmopara viticola
Phytophthora infestans = assay: whole plant or invertebrate; type: in vivo; conditions: in Solanum lycopersicum, foliar, 96 h, read-out: control of fungal infection, Phytophthora infestans
[1] = system: Puccinia recondita f.sp. tritici; assay: Puccinia recondita f.sp. tritici (wheat brown rust), wheat leaf segment assay, preventive; type: in vivo; conditions: foliar, 216 h, 200 ppm, wheat leaf segments, assessed nine days after inoculation, read-out: control of fungal infection, Puccinia recondite f.sp. tritici
Septoria nodorum = Septoria nodorum (wheat glume blotch), wheat leaf segment assay, preventive; type: in vivo; conditions: Parastagonospora nodorum, foliar, 96 h; 200 ppm; wheat leaf segments; assessed four days after inoculation; read-out: control of fungal infection, Septoria nodorum
Septoria tritici = Septoria tritici (leaf blotch), liquid culture growth inhibition in nutrient broth; type: cell-based; conditions: Zymoseptoria tritici; 200 ppm; PDB broth, 24 C; inhibition of growth determined photometrically after 72 hrs; read-out: control of fungal infection, Septoria tritici
Fusarium culmorum = Fusarium culmorum (root rot), liquid culture growth inhibition in nutrient broth; type: cell-based; conditions: PDB broth, 24 C, inhibition of growth determined photometrically after 48 hrs, read-out: control of fungal infection, Fusarium culmorum
Procedure: Mycelia fragments or conidia suspensions of a fungus, prepared either freshly from liquid cultures of the fungus or from cryogenic storage, are directly mixed into nutrient broth. DMSO solutions of the test compound (max. 10 mg/ml) is diluted with 0.025% Tween20 by factor 50 and 10 μl of this solution is pipetted into a microtiter plate (96-well format) and the nutrient broth containing the fungal spores/mycelia fragments is then added to give an end concentration of the tested compound. The test plates are incubated at 24° C. and 96% rH in the dark. The inhibition of fungal growth is determined photometrically after 2-6 days and antifungal activity is calculated.
Fusarium culmorum (root rot): Conidia of the fungus from cryogenic storage were directly mixed into nutrient broth (PDB potato dextrose broth). After placing a (DMSO) solution of the test compounds into a microtiter plate (96-well format) the nutrient broth containing the fungal spores was added. The test plates were incubated at 24 C and the inhibition of growth was determined photometrically after 48 hrs.

Pythium ultimum = Pythium ultimum (Damping off), liquid culture growth inhibition in potato dextrose broth; type: cell-based; conditions: Globisporangium ultimum; 20 ppm; potato dextrose broth, 24° C.; inhibition of growth determined photometrically after 48 hours; read-out: control of fungal infection, Pythium ultimum
[2] = system: Erysiphe graminis f.sp. tritici; assay: Erysiphe graminis f.sp. tritici (wheat powdery mildew), wheat leaf segment assay, preventive; type: in vivo; conditions: Blumeria graminis, foliar, 96 h; 200 ppm; wheat leaf segments; assessed four days after inoculation; read-out: control of fungal infection, Etysiphe graminis f.sp. tritici
Botrytis cinerea = Botrytis cinerea (grey mould), bean leaf disk assay, preventive; type: in vivo; conditions: foliar, 96 h, 200 ppm, bean leaf disks, assessed four days after inoculation, read-out: control of fungal infection, Botrytis cinerea

C#Cc1cnc2ccc(OC(SC)C(=O)NC3(C=NOC)CCC3)cc2c1 (stereo not shown) [Compound No. 78, 2-(3-ethynyl-quinolin-6-yloxy)-N-[1-(methoxyimino-methyl)-cyclobutyl]-2-methylsulfanyl-acetamide]
≥ 60%: pest or weed control at 200 ppm (Plasmopara viticola) | pest or weed control at 200 ppm (Phytophthora infestans) | pest or weed control at 200 ppm [1] | pest or weed control at 200 ppm (Septoria nodorum) | inhibition of growth at 200 ppm (Septoria tritici) | inhibition of growth at 200 ppm (Fusarium culmorum) | inhibition of growth at 20 ppm (Pythium ultimum)

C#Cc1cnc2ccc(OC(SC)C(=O)NC3(C=NO)CCC3)cc2c1 (stereo not shown) [Compound No. 80, 2-(3-Ethynyl-quinolin-6-yloxy)-N-[1-(hydroxyimino-methyl)-cyclobutyl]-2-methylsulfanyl-acetamide]
≥ 60%: pest or weed control at 200 ppm (Plasmopara viticola) | pest or weed control at 200 ppm (Phytophthora infestans) | pest or weed control at 200 ppm [2] | pest or weed control at 200 ppm [1] | pest or weed control at 200 ppm (Septoria nodorum) | inhibition of growth at 200 ppm (Septoria tritici) | inhibition of growth at 200 ppm (Fusarium culmorum) | inhibition of growth at 20 ppm (Pythium ultimum)

C#Cc1cnc2ccc(OC(SC)C(=O)NC(C)(C)CC=NOC)cc2c1 (stereo not shown) [Compound No. 95, 2-(3-Ethynyl-quinolin-6-yloxy)-N-(3-methoxyimino-1,1-dimethyl-propyl)-2-methylsulfanyl-acetamide]
≥ 60%: pest or weed control at 200 ppm (Plasmopara viticola) | pest or weed control at 200 ppm (Phytophthora infestans) | pest or weed control at 200 ppm [2] | pest or weed control at 200 ppm (Botrytis cinerea) | pest or weed control at 200 ppm [1] | pest or weed control at 200 ppm (Septoria nodorum) | inhibition of growth at 200 ppm (Septoria tritici) | inhibition of growth at 200 ppm (Fusarium culmorum) | inhibition of growth at 20 ppm (Pythium ultimum)

C#Cc1cnc2cc(F)c(OC(CC)C(=O)NC(C)(C)C=NOC)cc2c1 (stereo not shown) [Compound No. 134, 2-(3-Ethynyl-7-fluoro-quinolin-6-yloxy)-N-(2-methoxyimino-1,1-dimethyl-ethyl)-butyramide]
≥ 60%: pest or weed control at 200 ppm (Plasmopara viticola) | pest or weed control at 200 ppm (Phytophthora infestans) | pest or weed control at 200 ppm [2] | pest or weed control at 200 ppm [1] | pest or weed control at 200 ppm (Septoria nodorum) | inhibition of growth at 200 ppm (Septoria tritici) | inhibition of growth at 200 ppm (Fusarium culmorum) | inhibition of growth at 20 ppm (Pythium ultimum)

C#Cc1cnc2ccc(OC(CC)C(=O)NC(C)(C#N)C=NOC)cc2c1 (stereo not shown) [Compound No. 61, N-(1-Cyano-2-methoxyimino-1-methyl-ethyl)-2-(3-ethynyl-quinolin-6-yloxy)-butyramide]
≥ 60%: pest or weed control at 200 ppm (Plasmopara viticola) | pest or weed control at 200 ppm (Phytophthora infestans) | pest or weed control at 200 ppm [2] | pest or weed control at 200 ppm (Botrytis cinerea) | pest or weed control at 200 ppm [1] | pest or weed control at 200 ppm (Septoria nodorum) | inhibition of growth at 200 ppm (Septoria tritici) | inhibition of growth at 200 ppm (Fusarium culmorum) | inhibition of growth at 20 ppm (Pythium ultimum)

C#Cc1cnc2ccc(OC(SC)C(=O)NC(C)(C#C)C=NOC)cc2c1 (stereo not shown) [Compound No. 69, 2-(3-Ethynyl-quinolin-6-yloxy)-N-[1-(methoxyimino-methyl)-1-methyl-prop-2-ynyl]-2-methylsulfanyl-acetamide]
≥ 60%: pest or weed control at 200 ppm (Plasmopara viticola) | pest or weed control at 200 ppm (Phytophthora infestans) | pest or weed control at 200 ppm [2] | pest or weed control at 200 ppm (Botrytis cinerea) | pest or weed control at 200 ppm [1] | pest or weed control at 200 ppm (Septoria nodorum) | inhibition of growth at 200 ppm (Septoria tritici) | inhibition of growth at 200 ppm (Fusarium culmorum) | inhibition of growth at 20 ppm (Pythium ultimum)

C#Cc1cnc2ccc(OC(CC)C(=O)NC(C)(C)C=NOCC=C)cc2c1 (stereo not shown) [Compound No. 149, N-(2-Allyloxyimino-1,1-dimethyl-ethyl)-2-(3-ethynyl-quinolin-6-yloxy)-butyramide]
≥ 60%: pest or weed control at 200 ppm [2] | pest or weed control at 200 ppm (Botrytis cinerea) | pest or weed control at 200 ppm [1] | inhibition of growth at 200 ppm (Septoria tritici) | inhibition of growth at 200 ppm (Fusarium culmorum) | inhibition of growth at 20 ppm (Pythium ultimum)

C#Cc1cnc2ccc(OC(SC)C(=O)NC(C)(C#N)C=NOC)cc2c1 (stereo not shown) [Compound No. 59, N-(1-Cyano-2-methoxyimino-1-methyl-ethyl)-2-(3-ethynyl-quinolin-6-yloxy)-2-methylsulfanyl-acetamide]
≥ 60%: pest or weed control at 200 ppm (Plasmopara viticola) | pest or weed control at 200 ppm (Phytophthora infestans) | pest or weed control at 200 ppm [2] | pest or weed control at 200 ppm (Botrytis cinerea) | pest or weed control at 200 ppm [1] | pest or weed control at 200 ppm (Septoria nodorum) | inhibition of growth at 200 ppm (Septoria tritici) | inhibition of growth at 200 ppm (Fusarium culmorum)

C#Cc1cnc2c(C)cc(OC(CC)C(=O)NC(C)(C)C=NO)cc2c1 (stereo not shown) [Compound No. 139, 2-(3-Ethynyl-8-methyl-quinolin-6-yloxy)-N-(2-hydroxyimino-1,1-dimethyl-ethyl)-butyramide]
≥ 60%: pest or weed control at 200 ppm (Plasmopara viticola) | pest or weed control at 200 ppm (Phytophthora infestans) | pest or weed control at 200 ppm [2] | pest or weed control at 200 ppm [1] | pest or weed control at 200 ppm (Septoria nodorum) | inhibition of growth at 200 ppm (Septoria tritici) | inhibition of growth at 200 ppm (Fusarium culmorum) | inhibition of growth at 20 ppm (Pythium ultimum)

C#CCOCC(C)(C=NOC)NC(=O)C(Oc1ccc2ncc(C#C)cc2c1)SC (stereo not shown) [Compound No. 62, 2-(3-Ethynyl-quinolin-6-yloxy)-N-(2-methoxyimino-1-methyl-1-prop-2-ynyloxymethyl-ethyl)-2-methylsulfanyl-acetamide]
≥ 60%: pest or weed control at 200 ppm (Plasmopara viticola) | pest or weed control at 200 ppm (Phytophthora infestans) | pest or weed control at 200 ppm [2] | pest or weed control at 200 ppm (Botrytis cinerea) | pest or weed control at 200 ppm [1] | pest or weed control at 200 ppm (Septoria nodorum) | inhibition of growth at 200 ppm (Septoria tritici) | inhibition of growth at 20 ppm (Pythium ultimum)

CON=C(C)C(C)(C)NC(=O)C(Oc1ccc2ncc(Br)cc2c1)SC (stereo not shown) [Compound No. 111, 2-(3-Bromo-quinolin-6-yloxy)-N-{2-[(E or Z)-methoxyimino]-1,1-dimethyl-propyl}-2-methylsulfanyl-acetamide]
≥ 60%: pest or weed control at 200 ppm (Plasmopara viticola) | pest or weed control at 200 ppm (Phytophthora infestans) | pest or weed control at 200 ppm [1] | pest or weed control at 200 ppm (Septoria nodorum) | inhibition of growth at 200 ppm (Septoria tritici) | inhibition of growth at 200 ppm (Fusarium culmorum) | inhibition of growth at 20 ppm (Pythium ultimum)

C#Cc1cnc2ccc(OC(CC)C(=O)NC(C)(C)C=NOCC)cc2c1 (stereo not shown) [Compound No. 148, N-(2-Ethoxyimino-1,1-dimethyl-ethyl)-2-(3-ethynyl-quinolin-6-yloxy)-butyramide]
≥ 60%: pest or weed control at 200 ppm (Plasmopara viticola) | pest or weed control at 200 ppm (Phytophthora infestans) | pest or weed control at 200 ppm [2] | pest or weed control at 200 ppm [1] | pest or weed control at 200 ppm (Septoria nodorum) | inhibition of growth at 200 ppm (Septoria tritici) | inhibition of growth at 200 ppm (Fusarium culmorum) | inhibition of growth at 20 ppm (Pythium ultimum)

C#Cc1cnc2ccc(OC(CC)C(=O)NC(C)(C)C=NO)cc2c1 (stereo not shown) [Compound No. 147, 2-(3-Ethynyl-quinolin-6-yloxy)-N-(2-hydroxyimino-1,1-dimethyl-ethyl)-butyramide]
≥ 60%: pest or weed control at 200 ppm (Plasmopara viticola) | pest or weed control at 200 ppm (Phytophthora infestans) | pest or weed control at 200 ppm [2] | pest or weed control at 200 ppm [1] | pest or weed control at 200 ppm (Septoria nodorum) | inhibition of growth at 200 ppm (Septoria tritici) | inhibition of growth at 200 ppm (Fusarium culmorum) | inhibition of growth at 20 ppm (Pythium ultimum)

CON=CC1(NC(=O)C(Oc2ccc3ncc(I)cc3c2)SC)CCC1 (stereo not shown) [Compound No. 79, 2-(3-Iodo-quinolin-6-yloxy)-N-[1-(methoxyimino-methyl)-cyclobutyl]-2-methylsulfanyl-acetamide]
≥ 60%: pest or weed control at 200 ppm (Plasmopara viticola) | pest or weed control at 200 ppm (Phytophthora infestans) | pest or weed control at 200 ppm [2] | pest or weed control at 200 ppm [1] | pest or weed control at 200 ppm (Septoria nodorum) | inhibition of growth at 200 ppm (Septoria tritici) | inhibition of growth at 200 ppm (Fusarium culmorum) | inhibition of growth at 20 ppm (Pythium ultimum)

CCC(Oc1cc(Cl)c2ncc(Br)cc2c1)C(=O)NC(C)(C)C=NOC (stereo not shown) [Compound No. 146, 2-(3-Bromo-8-chloro-quinolin-6-yloxy)-N-(2-methoxyimino-1,1-dimethyl-ethyl)-butyramide]
≥ 60%: pest or weed control at 200 ppm (Plasmopara viticola) | pest or weed control at 200 ppm (Phytophthora infestans) | pest or weed control at 200 ppm [2] | pest or weed control at 200 ppm [1] | pest or weed control at 200 ppm (Septoria nodorum) | inhibition of growth at 200 ppm (Septoria tritici) | inhibition of growth at 200 ppm (Fusarium culmorum) | inhibition of growth at 20 ppm (Pythium ultimum)

CON=CC(C)NC(=O)C(Oc1ccc2ncc(Br)cc2c1)SC (stereo not shown) [Compound No. 94, 2-(3-Bromo-quinolin-6-yloxy)-N-(2-methoxyimino-1-methyl-ethyl)-2-methylsulfanyl-acetamide]
≥ 60%: pest or weed control at 200 ppm (Plasmopara viticola) | pest or weed control at 200 ppm (Phytophthora infestans) | pest or weed control at 200 ppm [2] | pest or weed control at 200 ppm [1] | pest or weed control at 200 ppm (Septoria nodorum) | inhibition of growth at 200 ppm (Septoria tritici) | inhibition of growth at 200 ppm (Fusarium culmorum) | inhibition of growth at 20 ppm (Pythium ultimum)
